Measured values from paper PMC4604124, “In Vitro Characterization of the Pharmacological Properties of the Anti-Cancer Chelator, Bp4eT, and Its Phase I Metabolites” (PLoS ONE, 2015).
Where “and” joins values, the source holds several entries; their conditions need not be identical. Identical values can stand only once.

Experiments:
[1] = system: labile iron pool of MCF-7 cells; assay: Calcein-AM assay, access to the labile iron pool; type: cell-based, human; set-up: Calcein fluorescence: unit not given here; conditions: 10 μM
In short: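 MCF-7 cells iron-loaded with ferric ammonium citrate (530 μg/mL) for 24 h, then loaded with 2 μM calcein-AM for 30 min at 37°C in ADS buffer, pH 7.4. Calcein fluorescence dequenching (ex 488/em 530 nm) followed for 10 min after adding 10 μM compound; efficacy expressed as percentage of Bp4eT (100%).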

MCF-7 cells = assay: Cell cycle analysis by flow cytometry (propidium iodide); type: cell-based, human; conditions: 0.1 μM, 72 h, control 33%
Protocol: To examine the effect of the agents on the cell cycle, MCF-7 cells were seeded in 60 mm Petri dishes at a density of 240,000 cells/dish and incubated with Bp4eT or its metabolites for 72 h/37°C. The cells were then harvested, fixed by ethanol and stained by propidium iodide (Molecular Probes, Eugene, OR, USA) for 30 min/37°C, as described previously. Cells were analyzed using Accuri C6 flow cytometer (Becton Dickinson and Company, San Jose, CA USA). Propidium iodide was excited at λex = 488 nm and fluorescence analyzed at λem = 585 nm (FL-2) with a total of 10,000 events collected per analysis.
SigmaStat for Windows 3.5 (Systat Software, San Jose, CA, USA) statistical software package was utilized to analyze results. The data are expressed as the mean ± SD of a given number of experiments. Statistical significance was determined using a one-way ANOVA with a Bonferroni post-hoc test or Student’s t-test. The results were considered to be statistically significant when p < 0.05. The IC50 values were calculated using CalcuSyn 2.0 software (Biosoft, Cambridge, UK). Cell cycle analysis was evaluated using MultiCycle AV Software (Phoenix Flow Systems, San Diego, CA, USA).

[2] = system: HCT116 human colorectal carcinoma cells; assay: MTT cytotoxicity assay, HCT116 cells; type: cell-based; conditions: for IC50: MTT
In short: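 72 h/37°C exposure, 0.1% DMSO. Plating: MCF-7 5,000; HCT116, A549 2,000; H9c2 10,000 cells/well, H9c2 switched to serum/pyruvate-free DMEM 24 h. MTT OD 570 nm, 690 nm background subtracted. Viability as % untreated control; IC50 derived.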

caspase 8 = assay: Caspase activity, luminescent kit, caspase 8; type: cell-based, human; conditions: for kaspáza 8, raw signal / kaspáza 8, signal / viabilita: individual experiments by date; for kaspáza 8, raw signal, průměry / kaspáza 8, % kontroly / kaspáza 8, signal / viabilita, průměry: mean; for kaspáza 8, % kontroly / kaspáza 8, signal / viabilita / kaspáza 8, signal / viabilita, průměry: normalised to viability

## CCNC(=O)NN=C(c1ccccc1)c1ccccn1 [E-Bp4eS, 2-benzoylpyridine 4-ethylsemicarbazone]
[1]; 30 sec, mean (průměr)
  Calcein fluorescence: 0.000
[1]; 30 sec, single experiments
  Calcein fluorescence: 0.000
[1]; 60 sec, mean (průměr)
  Calcein fluorescence: 3.596
[1]; 90 sec, mean (průměr)
  Calcein fluorescence: 0.696
[1]; 120 sec, mean (průměr)
  Calcein fluorescence: 1.617
[1]; 300 sec, mean (průměr)
  Calcein fluorescence: 0.000
[1]; 300 sec, single experiments
  Calcein fluorescence: 0.000
[1]; 600 sec, mean (průměr)
  Calcein fluorescence: 0.000
[1]; 600 sec, single experiments
  Calcein fluorescence: 0.000
[1]; MCF-7, mean of 6 experiments
  Chelation efficacy: fluorescence of free calcein at t = 600 s as percentage of Bp4eT: 0.0001667%
[1]; MCF-7, single experiments
  Fluorescence of free calcein at 600 s as percentage of Bp4eT: 0%
MCF-7 cells
  Percentage of cells in the G2/M phase: slight, but significant (p < 0.01–0.05) decrease
[2]; 3T3/HCT116
  Therapeutic index, IC50 non-cancerous cells / IC50 neoplastic cells: >10.5
[2]; H9c2/HCT116
  Therapeutic index, IC50 non-cancerous cells / IC50 neoplastic cells: 9.3
[2]; HCT116, 72 h/37°C, mean ± SD, n ≥ 4
  IC50: 95.4 ± 10.4 µM
[2]; HCT116, 2 000 b/j, 1 μM, průměr (mean), sheet E-Bp4eS
  MTT, relative to control (0 = 100): 93.86
[2]; HCT116, 2 000 b/j, 1 μM, single experiment (date), sheet E-Bp4eS
  MTT, relative to control (0 = 100): 90.5387 and 95.2075 and 90.3432 and 99.3608
[2]; HCT116, 2 000 b/j, 3 μM, průměr (mean), sheet E-Bp4eS
  MTT, relative to control (0 = 100): 91.05
[2]; HCT116, 2 000 b/j, 3 μM, single experiment (date), sheet E-Bp4eS
  MTT, relative to control (0 = 100): 88.1499 and 86.4536 and 88.7606 and 100.823
[2]; HCT116, 2 000 b/j, 10 μM, průměr (mean), sheet E-Bp4eS
  MTT, relative to control (0 = 100): 89.35
[2]; HCT116, 2 000 b/j, 10 μM, single experiment (date), sheet E-Bp4eS
  MTT, relative to control (0 = 100): 79.5919 and 93.1715 and 88.2723 and 96.3507
[2]; HCT116, 2 000 b/j, 30 μM, průměr (mean), sheet E-Bp4eS
  MTT, relative to control (0 = 100): 86.47
[2]; HCT116, 2 000 b/j, 30 μM, single experiment (date), sheet E-Bp4eS
  MTT, relative to control (0 = 100): 82.3738 and 90.947 and 82.3476 and 90.2168
[2]; HCT116, 2 000 b/j, 100 μM, průměr (mean), sheet E-Bp4eS
  MTT, relative to control (0 = 100): 59.19
[2]; HCT116, 2 000 b/j, 100 μM, single experiment (date), sheet E-Bp4eS
  MTT, relative to control (0 = 100): 61.842 and 75.8026 and 45.1438 and 53.9757
[2]; HCT116, 2 000 b/j, 300 μM, průměr (mean), sheet E-Bp4eS
  MTT, relative to control (0 = 100): 9.27
[2]; HCT116, 2 000 b/j, 1000 μM, průměr (mean), sheet E-Bp4eS
  MTT, relative to control (0 = 100): 7.18
[2]; HCT116, 2 000 b/j, 1000 μM, single experiment (date), sheet E-Bp4eS
  MTT, relative to control (0 = 100): 7.957 and 7.9705 and 6.656 and 6.131
[2]; HCT116, 2 000 b/j, single experiment (date), sheet E-Bp4eS
  IC50: 108 µM and 85.2 µM and 99.1 µM
[2]; Homo sapiens, HCT-116, HCT116, 2 000 b/j, průměr (mean), sheet E-Bp4eS
  IC50: 95.4 µM
[2]; Homo sapiens, HCT-116, HCT116, 2 000 b/j, single experiment (date), sheet E-Bp4eS
  IC50: 89.2 µM
Caspase 8; 3 hodiny
  kaspáza 8, raw signal: 1819 and 1041 and 1191.5 and 952.5
  kaspáza 8, raw signal, průměry: 1251
  kaspáza 8, % kontroly: 93.96 % kontroly
  kaspáza 8, signal / viabilita: 18.5259 and 10.6022 and 12.135 and 9.701
  kaspáza 8, signal / viabilita, průměry: 12.741
Caspase 8; 24 hodin
  kaspáza 8, raw signal: 1530 and 1548 and 1983.5 and 1503
  kaspáza 8, raw signal, průměry: 1641.12
  kaspáza 8, % kontroly: 104.70 % kontroly
  kaspáza 8, signal / viabilita: 15.3819 and 15.5629 and 19.9412 and 15.1105
  kaspáza 8, signal / viabilita, průměry: 16.4991
Caspase 8; 72 hodin
  kaspáza 8, raw signal: 6786.5 and 6488.5 and 6545 and 6983
  kaspáza 8, raw signal, průměry: 6700.75
  kaspáza 8, % kontroly: 98.51 % kontroly
  kaspáza 8, signal / viabilita: 69.3845 and 66.3378 and 66.9154 and 71.3935
  kaspáza 8, signal / viabilita, průměry: 68.5078
